# Results published in US4002623A, “Anti-inflammatory 1-[3-(dialkylamino)propyl]-2-acylaminobenzimidazoles and 2-acylamino-3-[3-(dialkylamino)-propyl]imidazo[4,5-b]pyridines” (Pfizer Inc., priority 1974, dated 1977).
# Where two headings read alike, the source gives them in different places.
# Assay: adjuvant arthritis screen (Walz et al.), swelling of the non-injected left hind foot on Day 16
# Assay type: in vivo, male inbred Lewis rats
# Conditions: Rattus norvegicus, 384 h, daily day -1 through day 15, read-out: Activity Percent Inhibition; for inhibition in vivo at 20 mg/kg: 20 mg./kg. po; for inhibition in vivo at 33 mg/kg: 33 mg./kg. ip
# Excerpt: The adjuvant arthritis test described by Walz et al., Ann. Rheum. Dis., 30, 303 (1971) was selected as the method of choice for the determination of the extent of which the novel compounds of the present invention are therapeutically effective as anti-inflammatory agents. Adjuvant arthritis is a crippling deformity in rats resulting from diffuse connective tissue involvement. It is considered by some authorities to be the best available experimental animal model of human rheumatoid arthritis because of its strong clinical and pathological similarities to the human disease and because it can be effectively treated with known anti-arthritic drugs. In this test, lesions resembling those of human rheumatoid arthritis are induced by the injection of complete Freund's adjuvant into one hind leg of a rat. A vigorous inflammatory response occurs in the injected hind leg and reaches its greatest size in about four days. This primary response is followed by the development of a second inflammatory response, appearing about 12-16 days post-injection, that occurs in the uninjected hind leg. While the compounds of the invention are capable of inhibiting the degree of inflammation in both legs, the inhibition of swelling in the uninjected leg at 16 days is considered to be the more meaningful measure of antiarthritic activity.
# The adjuvant arthritis screen as described by Walz et al. (Ann. Rheum. Dis., 30: 303 (1971), was used to evaluate the above prepared compounds.
# The screen is conducted using male inbred Lewis rats weighing approximately 250 gm. The animals are dosed with drug beginning on day- 1 and continuing daily through day 15. On Day 0, the subplanter surface of the right hind paw is injected with 0.1cc of a 1% suspension of Mycobacterium butyricum (Freunds adjuvant) in Primol (Esso). The swelling of the non-injected left hind foot on Day 16, resulting from immune response to adjuvant, was determined for dosed animals and controls. The foot volume is measured by immersing the paw to the anatomical hairline into a mercury reservoir which is connected to a Statham pressure transducer and a recording device. The results are expressed as % inhibition calculated according to the following equation: [formula] The results obtained are as follows for [drawing 22] where Z is --N(CH3)2 and X is carbon: […]
Structure (SMILES),inhibition in vivo at 20 mg/kg [%],inhibition in vivo at 33 mg/kg [%],further results
COc1cccc(C(=O)Nc2nc3cc(S(=O)(=O)N(C)C)ccc3n2CCCN2CCN(C)CC2)c1 [3-Methoxyphenyl; SO2 N(CH3)2; H; drawing 24],13,–,–
Cc1cccc(C(=O)Nc2nc3ccccc3n2CCCN(C)C)c1 [3-Methylphenyl; H; H; Z = N(CH3)2],–,21,–
Cc1cccc(C(=O)Nc2nc3ccccc3n2CCCN2CCOCC2)c1 [3-Methylphenyl; H; H; drawing 23],–,40,–
Cc1cccc(C(=O)Nc2nc3ccccc3n2CCCN2CCN(C)CC2)c1 [3-Methylphenyl; H; H; drawing 24],–,39,–
"CN1CCN(CCCn2c(NC(=O)c3cccc(C(F)(F)F)c3)nc3cc(C(F)(F)F)ccc32)CC1 [3-Trifluoromethylphenyl; CF3; H; drawing 24, 1-[3-(4-methyl-1-piperazinyl)propyl]-2-(3-trifluoromethylbenzamido)-5-trifluoromethylbenzimidazole]",–,83,inhibition in vivo at 10 mg/kg (10 mg./kg. po): 46%
Cc1ccc2c(c1)nc(NC(=O)c1cccc(C(F)(F)F)c1)n2CCCN1CCN(C)CC1 [3-Trifluoromethylphenyl; CH3; H; drawing 24],27,–,–
CN1CCN(CCCn2c(NC(=O)c3cccc(C(F)(F)F)c3)nc3cc(Cl)c(Cl)cc32)CC1 [3-Trifluoromethylphenyl; Cl; Cl; drawing 24],–,74,–
CN1CCN(CCCn2c(NC(=O)c3cccc(C(F)(F)F)c3)nc3cc(Cl)ccc32)CC1 [3-Trifluoromethylphenyl; Cl; H; drawing 24],–,74,inhibition in vivo at 10 mg/kg (10 mg./kg. po): 16%
Cc1ccc2nc(NC(=O)c3cccc(C(F)(F)F)c3)n(CCCN3CCN(C)CC3)c2c1 [3-Trifluoromethylphenyl; H; CH3; drawing 24],21,–,–
O=C(Nc1nc2ccccc2n1CCCN1CCOCC1)c1cccc(C(F)(F)F)c1 [3-Trifluoromethylphenyl; H; H; drawing 23],–,0,–
CN1CCN(CCCn2c(NC(=O)c3cccc(C(F)(F)F)c3)nc3ccccc32)CC1 [3-Trifluoromethylphenyl; H; H; drawing 24],–,79,inhibition in vivo at 10 mg/kg (10 mg./kg. po): 18%
"CN1CCN(CCCn2c(NC(=O)c3cccc(C(F)(F)F)c3)nc3cccnc32)CC1 [3-Trifluoromethylphenyl; H; H; drawing 25, 2-(3-trifluoromethylbenzamido)-3-[3-(4-methyl-1-piperazino)propyl]imidazo[4,5-b]pyridine]",39,–,–
O=C(Nc1nc2ccccc2n1CCCN1CCCCC1)c1cccc(C(F)(F)F)c1 [3-Trifluoromethylphenyl; H; H; drawing 26],–,30,–
O=C(Nc1nc2ccccc2n1CCCN1CCN(Cc2ccccc2)CC1)c1cccc(C(F)(F)F)c1 [3-Trifluoromethylphenyl; H; H; drawing 27],–,–,inhibition in vivo at 10 mg/kg (10 mg./kg. ip): 35%
O=C(Nc1nc2ccccc2n1CCCN1CCNCC1)c1cccc(C(F)(F)F)c1 [3-Trifluoromethylphenyl; H; H; drawing 28],–,–,inhibition in vivo at 10 mg/kg (10 mg./kg. po): 13%
COc1ccc2c(c1)nc(NC(=O)c1cccc(C(F)(F)F)c1)n2CCCN1CCN(C)CC1 [3-Trifluoromethylphenyl; OCH3; H; drawing 24],–,57,inhibition in vivo at 10 mg/kg (10 mg./kg. po): -5%
CN1CCN(CCCn2c(NC(=O)c3ccc(Cl)cc3)nc3cc(C(F)(F)F)ccc32)CC1 [4-Chlorophenyl; CF3; H; drawing 24],–,47,–
Cc1cc2nc(NC(=O)c3ccc(Cl)cc3)n(CCCN3CCN(C)CC3)c2cc1C [4-Chlorophenyl; CH3; CH3; drawing 24],30,–,–
Cc1ccc2c(c1)nc(NC(=O)c1ccc(Cl)cc1)n2CCCN1CCN(C)CC1 [4-Chlorophenyl; CH3; H; drawing 24],27,–,–
CN1CCN(CCCn2c(NC(=O)c3ccc(Cl)cc3)nc3cc(Cl)ccc32)CC1 [4-Chlorophenyl; Cl; H; drawing 24],–,63,inhibition in vivo at 10 mg/kg (10 mg./kg. po): -10%
"CN(C)CCCn1c(NC(=O)c2ccc(Cl)cc2)nc2ccccc21 [4-Chlorophenyl; H; H; Z = N(CH3)2, 1-[3-(dimethylamino)propyl]-2-(4-chlorobenzamido)-benzimidazole]",–,51,inhibition in vivo at 10 mg/kg (10 mg./kg. ip): 27%
O=C(Nc1nc2ccccc2n1CCCN1CCOCC1)c1ccc(Cl)cc1 [4-Chlorophenyl; H; H; drawing 23],–,15,–

Structure (SMILES),inhibition in vivo at 20 mg/kg [%],inhibition in vivo at 33 mg/kg [%],further results
CN1CCN(CCCn2c(NC(=O)c3ccc(Cl)cc3)nc3ccccc32)CC1 [4-Chlorophenyl; H; H; drawing 24],–,43,–
CN1CCN(CCCn2c(NC(=O)c3ccc(Cl)cc3)nc3cccnc32)CC1 [4-Chlorophenyl; H; H; drawing 25],26,–,–
O=C(Nc1nc2ccccc2n1CCCN1CCCCC1)c1ccc(Cl)cc1 [4-Chlorophenyl; H; H; drawing 26],–,46,–
CN1CCN(CCCn2c(NC(=O)c3ccc(Cl)cc3)nc3cc(S(=O)(=O)N(C)C)ccc32)CC1 [4-Chlorophenyl; SO2 N(CH3)2; H; drawing 24],18,–,–
CN1CCN(CCCn2c(NC(=O)C=Cc3ccc(Cl)cc3)nc3cc(C(F)(F)F)ccc32)CC1 [4-Chlorostyryl; CF3; H; drawing 24],6,–,–
"Cc1ccc2c(c1)nc(NC(=O)C=Cc1ccc(Cl)cc1)n2CCCN1CCN(C)CC1 [4-Chlorostyryl; CH3; H; drawing 24, 1-[3-(4-methyl-1-piperazinyl)propyl]-2-(p-chlorocinnamido)-5-methylbenzimidazole]",39,–,–
CN1CCN(CCCn2c(NC(=O)C=Cc3ccc(Cl)cc3)nc3cc(Cl)ccc32)CC1 [4-Chlorostyryl; Cl; H; drawing 24],–,66,–
CN(C)CCCn1c(NC(=O)C=Cc2ccc(Cl)cc2)nc2ccccc21 [4-Chlorostyryl; H; H; Z = N(CH3)2],–,33,–
COc1ccc2c(c1)nc(NC(=O)C=Cc1ccc(Cl)cc1)n2CCCN1CCN(C)CC1 [4-Chlorostyryl; OCH3; H; drawing 24],–,–,inhibition in vivo at 10 mg/kg (10 mg./kg. po): 47%
COc1ccc(C(=O)Nc2nc3cc(Cl)ccc3n2CCCN2CCN(C)CC2)cc1 [4-Methoxyphenyl; Cl; H; drawing 24],–,46,–
COc1ccc(C(=O)Nc2nc3ccc(C)cc3n2CCCN2CCN(C)CC2)cc1 [4-Methoxyphenyl; H; CH3; drawing 24],22,–,–
"COc1ccc(C(=O)Nc2nc3ccccc3n2CCCN(C)C)cc1 [4-Methoxyphenyl; H; H; Z = N(CH3)2, 1-[3-(dimethylamino)propyl]-2-(4-methyoxybenzamido-)benzimidazole]",–,59,inhibition in vivo at 10 mg/kg (10 mg./kg. po): 12%
COc1ccc(C(=O)Nc2nc3ccccc3n2CCCN2CCOCC2)cc1 [4-Methoxyphenyl; H; H; drawing 23],–,54,–
COc1ccc(C(=O)Nc2nc3ccccc3n2CCCN2CCN(C)CC2)cc1 [4-Methoxyphenyl; H; H; drawing 24],–,27,–
COc1ccc(C(=O)Nc2nc3cccnc3n2CCCN2CCN(C)CC2)cc1 [4-Methoxyphenyl; H; H; drawing 25],5,–,–
COc1ccc(C(=O)Nc2nc3ccccc3n2CCCN2CCN(Cc3ccccc3)CC2)cc1 [4-Methoxyphenyl; H; H; drawing 27],–,–,inhibition in vivo at 10 mg/kg (10 mg./kg. ip): 32%
COc1ccc(C(=O)Nc2nc3cc(S(=O)(=O)N(C)C)ccc3n2CCCN2CCN(C)CC2)cc1 [4-Methoxyphenyl; SO2 N(CH3)2; H; drawing 24],27,–,–
CN1CCN(CCCn2c(NC(=O)c3ccc(C(F)(F)F)cc3)nc3cc(C(F)(F)F)ccc32)CC1 [4-Trifluoromethylphenyl; CF3; H; drawing 24],–,71,inhibition in vivo at 10 mg/kg (10 mg./kg. po): 28%
Cc1ccc2c(c1)nc(NC(=O)c1ccc(C(F)(F)F)cc1)n2CCCN1CCN(C)CC1 [4-Trifluoromethylphenyl; CH3; H; drawing 24],35,–,–
"CN1CCN(CCCn2c(NC(=O)c3ccc(C(F)(F)F)cc3)nc3cc(Cl)ccc32)CC1 [4-Trifluoromethylphenyl; Cl; H; drawing 24, 1-[3-(4-methyl-1-piperazinyl)propyl]-2-(4-trifluoromethylbenzamido)-5-chlorobenzimidazole]",–,72,inhibition in vivo at 10 mg/kg (10 mg./kg. po): 38%
Cc1ccc2nc(NC(=O)c3ccc(C(F)(F)F)cc3)n(CCCN3CCN(C)CC3)c2c1 [4-Trifluoromethylphenyl; H; CH3; drawing 24],50,–,–
